Laboratory results reported in PubChem BioAssay AID1259407 (Chemical Carcinogenesis Research Information System (CCRIS), 2018).
Activity calls are given as the source filed them. No rule for the calls is given here.

System: CCRIS mutagenicity, Ames/micronucleus/aberration tests
Assay: CCRIS mutagenicity studies
[1] = Test System: AMES SALMONELLA TYPHIMURIUM, Strain/Indicator: TA98, Metabolic Activation: NONE, Method: STANDARD PLATE
[2] = Test System: AMES SALMONELLA TYPHIMURIUM, Strain/Indicator: TA98, Metabolic Activation: RAT, LIVER, S-9, AROCLOR 1254, Method: STANDARD PLATE
[3] = Test System: AMES SALMONELLA TYPHIMURIUM, Strain/Indicator: TA100, Metabolic Activation: NONE, Method: STANDARD PLATE
[4] = Test System: AMES SALMONELLA TYPHIMURIUM, Strain/Indicator: TA100, Metabolic Activation: RAT, LIVER, S-9, AROCLOR 1254, Method: STANDARD PLATE
[5] = Test System: AMES SALMONELLA TYPHIMURIUM, Strain/Indicator: TA1535, Metabolic Activation: NONE, Method: STANDARD PLATE
[6] = Test System: AMES SALMONELLA TYPHIMURIUM, Strain/Indicator: TA1535, Metabolic Activation: RAT, LIVER, S-9, AROCLOR 1254, Method: STANDARD PLATE
[7] = Test System: AMES SALMONELLA TYPHIMURIUM, Strain/Indicator: TA1537, Metabolic Activation: NONE, Method: STANDARD PLATE
[8] = Test System: AMES SALMONELLA TYPHIMURIUM, Strain/Indicator: TA1537, Metabolic Activation: RAT, LIVER, S-9, AROCLOR 1254, Method: STANDARD PLATE
[9] = Test System: AMES SALMONELLA TYPHIMURIUM, Strain/Indicator: TA1538, Metabolic Activation: NONE, Method: STANDARD PLATE
[10] = Test System: AMES SALMONELLA TYPHIMURIUM, Strain/Indicator: TA1538, Metabolic Activation: RAT, LIVER, S-9, AROCLOR 1254, Method: STANDARD PLATE
[11] = Test System: AMES SALMONELLA TYPHIMURIUM, Strain/Indicator: TA97, Metabolic Activation: NONE, Method: PREINCUBATION
[12] = Test System: AMES SALMONELLA TYPHIMURIUM, Strain/Indicator: TA98, Metabolic Activation: NONE, Method: PREINCUBATION
[13] = Test System: AMES SALMONELLA TYPHIMURIUM, Strain/Indicator: TA100, Metabolic Activation: NONE, Method: PREINCUBATION
[14] = Test System: AMES SALMONELLA TYPHIMURIUM, Strain/Indicator: TA1535, Metabolic Activation: NONE, Method: PREINCUBATION
[15] = Test System: AMES SALMONELLA TYPHIMURIUM, Strain/Indicator: TA1537, Metabolic Activation: NONE, Method: PREINCUBATION

SMILES | mutagenic call [1] | mutagenic call [2] | mutagenic call [3] | mutagenic call [4] | mutagenic call [5] | mutagenic call [6] | mutagenic call [7] | mutagenic call [8] | mutagenic call [9] | mutagenic call [10] | mutagenic call [11] | mutagenic call [12] | mutagenic call [13] | mutagenic call [14] | mutagenic call [15] | further results
Cc1c(C)c2c(c(C)c1O)CC[C@@](C)(CCC[C@H](C)CCC[C@H](C)CCCC(C)C)O2 | inactive; negative | inactive; negative | inactive; negative | inactive; negative | inactive; negative | inactive; negative | inactive; negative | inactive; negative | inactive; negative | inactive; negative | – | – | – | – | – | mutagenic call (Test System: E. COLI, Strain/Indicator: WP2, Metabolic Activation: NONE, Method: STANDARD PLATE): inactive; negative; mutagenic call (Test System: E. COLI, Strain/Indicator: WP2, Metabolic Activation: RAT, LIVER, S-9, AROCLOR 1254, Method: STANDARD PLATE): inactive; negative
COc1cc(O)c2c(c1)Cc1cc(C)cc(O)c1C2=O | – | – | – | – | – | – | inactive; negative | – | – | – | – | – | – | – | – | mutagenic call (Test System: AMES SALMONELLA TYPHIMURIUM, Strain/Indicator: TA1537, Metabolic Activation: S-9, Method: STANDARD PLATE): active; positive
CNc1ccccc1C(=O)OC | – | – | – | – | – | – | – | – | – | – | inactive; negative | – | – | – | – | mutagenic call (Test System: AMES SALMONELLA TYPHIMURIUM, Strain/Indicator: TA97, Metabolic Activation: RAT, LIVER, S-9, AROCLOR 1254, Method: PREINCUBATION): inactive; negative; mutagenic call (Test System: AMES SALMONELLA TYPHIMURIUM, Strain/Indicator: TA102, Metabolic Activation: NONE, Method: PREINCUBATION): inactive; negative; mutagenic call (Test System: AMES SALMONELLA TYPHIMURIUM, Strain/Indicator: TA102, Metabolic Activation: RAT, LIVER, S-9, AROCLOR 1254, Method: PREINCUBATION): inactive; negative; mutagenic call (Test System: UDS RODENT HEPATOCYTES, Strain/Indicator: THY INCORP (NON-S-PHASE), Metabolic Activation: NONE, Method: AUTORADIOGRAPHY): inactive; negative
CC1=CC(=O)C=C2CC[C@@H]3[C@H](CC[C@]4(C)C(=O)CC[C@@H]34)[C@@]12C | inactive; negative | inactive; negative | inactive; negative | inactive; negative | inactive; negative | inactive; negative | inactive; negative | inactive; negative | inactive; negative | inactive; negative | – | inactive; negative | inactive; negative | inactive; negative | inactive; negative | mutagenic call (End Point: IN VITRO CHROMOSOMAL ABERRATIONS, Test System: HUMAN PERIPHERAL LYMPHOCYTES, Metabolic Activation: NONE): inactive; negative; mutagenic call (End Point: IN VITRO CHROMOSOMAL ABERRATIONS, Test System: HUMAN PERIPHERAL LYMPHOCYTES, Metabolic Activation: RAT, LIVER, S-9, AROCLOR 1254): inactive; negative; mutagenic call (End Point: IN VIVO MICRONUCLEUS, Test System: BONE MARROW POLYCHROMATIC ERYTHROCYTES, Species: MOUSE, Strain/Sex: NMRI/MALE, FEMALE, Route: INTRAGASTRIC): inactive; negative; mutagenic call (Test System: AMES SALMONELLA TYPHIMURIUM, Strain/Indicator: TA98, Metabolic Activation: RAT, LIVER, S-9, AROCLOR 1254, Method: PREINCUBATION): inactive; negative; mutagenic call (Test System: AMES SALMONELLA TYPHIMURIUM, Strain/Indicator: TA100, Metabolic Activation: RAT, LIVER, S-9, AROCLOR 1254, Method: PREINCUBATION): inactive; negative; mutagenic call (Test System: AMES SALMONELLA TYPHIMURIUM, Strain/Indicator: TA1535, Metabolic Activation: RAT, LIVER, S-9, AROCLOR 1254, Method: PREINCUBATION): inactive; negative; mutagenic call (Test System: AMES SALMONELLA TYPHIMURIUM, Strain/Indicator: TA1537, Metabolic Activation: RAT, LIVER, S-9, AROCLOR 1254, Method: PREINCUBATION): inactive; negative; mutagenic call (Test System: AMES SALMONELLA TYPHIMURIUM, Strain/Indicator: TA1538, Metabolic Activation: NONE, Method: PREINCUBATION): inactive; negative; mutagenic call (Test System: AMES SALMONELLA TYPHIMURIUM, Strain/Indicator: TA1538, Metabolic Activation: RAT, LIVER, S-9, AROCLOR 1254, Method: PREINCUBATION): inactive; negative; mutagenic call (Test System: CHINESE HAMSTER V-79, Strain/Indicator: V-79 (HGPRT)/6-THIOGUANINE, Metabolic Activation: NONE): inactive; negative; mutagenic call (Test System: CHINESE HAMSTER V-79, Strain/Indicator: V-79 (HGPRT)/6-THIOGUANINE, Metabolic Activation: RAT, LIVER, S-9, AROCLOR 1254): inactive; negative
c1ccc2[nH]cnc2c1 | – | – | – | – | – | – | – | – | – | – | inactive; negative | inactive; negative | inactive; negative | inactive; negative | inactive; negative | mutagenic call (Test System: AMES SALMONELLA TYPHIMURIUM, Strain/Indicator: TA97, Metabolic Activation: HAMSTER, LIVER, S-9, AROCLOR 1254 (10 OR 30%), Method: PREINCUBATION): inactive; negative; mutagenic call (Test System: AMES SALMONELLA TYPHIMURIUM, Strain/Indicator: TA97, Metabolic Activation: RAT, LIVER, S-9, AROCLOR 1254 (10 OR 30%), Method: PREINCUBATION): inactive; negative; mutagenic call (Test System: AMES SALMONELLA TYPHIMURIUM, Strain/Indicator: TA98, Metabolic Activation: HAMSTER, LIVER, S-9, AROCLOR 1254 (10 OR 30%), Method: PREINCUBATION): inactive; negative; mutagenic call (Test System: AMES SALMONELLA TYPHIMURIUM, Strain/Indicator: TA98, Metabolic Activation: RAT, LIVER, S-9, AROCLOR 1254 (10 OR 30%), Method: PREINCUBATION): inactive; negative; mutagenic call (Test System: AMES SALMONELLA TYPHIMURIUM, Strain/Indicator: TA100, Metabolic Activation: HAMSTER, LIVER, S-9, AROCLOR 1254 (10 OR 30%), Method: PREINCUBATION): inactive; negative; mutagenic call (Test System: AMES SALMONELLA TYPHIMURIUM, Strain/Indicator: TA100, Metabolic Activation: RAT, LIVER, S-9, AROCLOR 1254 (10 OR 30%), Method: PREINCUBATION): inactive; negative; mutagenic call (Test System: AMES SALMONELLA TYPHIMURIUM, Strain/Indicator: TA1535, Metabolic Activation: HAMSTER, LIVER, S-9, AROCLOR 1254 (10 OR 30%), Method: PREINCUBATION): inactive; negative; mutagenic call (Test System: AMES SALMONELLA TYPHIMURIUM, Strain/Indicator: TA1535, Metabolic Activation: RAT, LIVER, S-9, AROCLOR 1254 (10 OR 30%), Method: PREINCUBATION): inactive; negative; mutagenic call (Test System: AMES SALMONELLA TYPHIMURIUM, Strain/Indicator: TA1537, Metabolic Activation: HAMSTER, LIVER, S-9, AROCLOR 1254 (10 OR 30%), Method: PREINCUBATION): inactive; negative; mutagenic call (Test System: AMES SALMONELLA TYPHIMURIUM, Strain/Indicator: TA1537, Metabolic Activation: RAT, LIVER, S-9, AROCLOR 1254 (10 OR 30%), Method: PREINCUBATION): inactive; negative
Cc1cc(O)c2c(c1)C(=O)C13C(=C2O)C(=O)C2C(O)C1C1C(O)C3C(=O)C3=C(O)c4c(O)cc(C)cc4C(=O)C321 (stereo not drawn) | – | inactive; negative | – | inactive; negative | – | – | inactive; negative | inactive; negative | – | – | – | – | – | – | – | –
